# Measured values as given in patent US8106218B2, “Pharmaceutical compounds” (Neuroscienze Pharmaness S.C. A R.L., priority 2004, dated 2012).
# Like-named read-outs stand apart in the source and are kept apart here.
# Experiments:
# [1] = target: T1, cannabinoidergic CB2 receptors (Rattus norvegicus, UniProt Q9QZN9); test: Radioreceptorial binding, [3H]-CP-55,940 competition, rat spleen membranes; conditions: rat spleen membranes, 1 nM [3H]-CP55,940; read-out: CB2 (spleen) Ki
# T1 construct: the brain in toto (cerebellum excluded) and the spleen were rapidly dissected and maintained in ice; from tissue; host or cells: rat spleen, membrane preparation
# T1 sequence (Q9QZN9 1-360): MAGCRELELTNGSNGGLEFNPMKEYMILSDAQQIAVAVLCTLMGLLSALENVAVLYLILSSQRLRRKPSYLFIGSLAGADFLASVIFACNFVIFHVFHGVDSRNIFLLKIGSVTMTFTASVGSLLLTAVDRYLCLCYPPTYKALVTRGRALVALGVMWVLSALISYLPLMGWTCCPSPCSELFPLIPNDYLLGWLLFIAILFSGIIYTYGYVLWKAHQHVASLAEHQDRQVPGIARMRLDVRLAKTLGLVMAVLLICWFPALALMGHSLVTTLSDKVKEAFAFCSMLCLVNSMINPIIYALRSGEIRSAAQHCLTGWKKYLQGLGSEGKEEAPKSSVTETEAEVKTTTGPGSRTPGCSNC
# Description: (§1) The affinity of the synthesized compounds towards the cannabinoidergic CB1 and CB2 receptors was evaluated in vitro through radioreceptorial binding studies by utilizing the following method.
# (§2) The receptorial binding technique allows indeed to establish if and with what affinity and specificity a determined compound binds itself to a particular receptor. To evaluate the possible affinity of a determined compound towards a particular receptor it is necessary to make to compete (in a particular preparation of the tissue in which those determined receptors are present) the compound to be tested with another compound whose affinity is known and whose molecule was rendered radioactive. […] The reading of the radioactivity present in the receptor-compound complex allows furthermore to calculate with extreme precision the amount of compound bound to the receptor. […] By repeating the same experimental scheme it is possible to evaluate the affinity of the compound towards other kinds of receptors and establish then the specificity degree.
# (§3) Food and water were available ad libitum.
# (§4) The animals were sacrificed by cervical dislocation, the brain in toto (cerebellum excluded) and the spleen were rapidly dissected and maintained in ice.
# (§5) The tissue was homogenized in 15 volumes (weight/volume) of TME buffer (50 mM Tris, 1 mM EDTA e 3 mM MgCl2, pH 7.4) by an Ultra-Turrax and centrifuged for 10 minutes at 1086×g in a centrifuge cooled at 4° C. The resulting supernatant was centrifuged at 45,000×g for 30 min at 4° C. by using a Beckman SW41 rotor and the final pellet was resuspended in 50 volumes of TME.
# (§6) The obtained membranes (50-80 μg of proteins) were incubated in the presence of 1 nM di[^3H]-CP55,940 for 1 h at 30° C. in a final volume of 0.5 ml of TME buffer containing 5 mg/ml of bovine serum albumin (BSA). The non specific binding was measured in the presence of CP55,940 at the 1 μM concentration.
# (§7) All the experiments were carried out in polypropylene test tubes pretreated with Sigma-Cote (Sigma Chemical Co. Ltd., Poole, UK) to reduce the non specific binding.
# (§8) For the building of the competitive inhibition binding curves eight different concentrations of each compound were used.
# (§9) Incubation was interrupted by addition of TME buffer (at 4° C.) containing 5 mg/ml of BSA and filtration under vacuum through Whatman GFC filters pretreated with 0.5% of polyethylamine (PEI) and by using a filtering apparatus (Brandell, Gaithersburg, Md., USA). Filters were washed 3 times with 5 ml of Tris HCl buffer (pH 7.4, 4° C.) containing 1 mg/ml of BSA and singly placed in plastic vials containing 4 ml of scintillating liquid (Ultima Gold MV, Packard).
# (§10) The radioactivity present in the filters was measured by a scintillator spectrophotometer (Tricarb 2100, Packard, Meridien, USA).
# (§11) The protein determination was carried out by the Bradford method by using the protocol and the reactants supplied by Bio-Rad (Milano, Italia).
# (§12) The affinity of the compounds towards the CB1 and CB2 receptors was expressed in Ki terms.
# [2] = target: T2, cannabinoidergic CB1 receptors (Rattus norvegicus, UniProt P20272); test: Radioreceptorial binding, [3H]-CP-55,940 competition, rat brain membranes; conditions: rat brain membranes, 1 nM [3H]-CP55,940; read-out: CB1 (brain) Ki
# T2 construct: the brain in toto (cerebellum excluded) and the spleen were rapidly dissected and maintained in ice; from tissue; host or cells: rat brain (cerebellum excluded), membrane preparation
# Description: as §1, §2, §3, §4, §5, §6, §7, §8, §9, §10, §11, §12
# rat [3] = test: Hypothermia test in vivo, antagonism of the hypothermia induced by WIN 55,212-2; conditions: for antagonist activity towards the hypothermia induced by WIN 55,212-2, in words: compound i.p. 30 min before WIN 55,212-2 (3 mg/kg)
# Description: The rectal temperature in the rat was determined by an electronic thermometer inserted at a 2 mm depth. The measurements were carried out on rats acclimated for one hour. The rectal temperature was determined before and after (from 30 to 120 minutes) the i.p. administration of the compound to be tested.
# rat [4] = conditions: for passage of the hemato-encephalic barrier: concluded from the hypothermia tests; for effect on body temperature (hypothermia) of the compound alone, in words: i.p., up to 120 min
# Description: The rectal temperature in the rat was determined by an electronic thermometer inserted at a 2 mm depth. The measurements were carried out on rats acclimated for one hour. […]
# Each test was repeated on ten animals; the reported results are the average of the results obtained with the ten animals.
# rat intestinal motility [5] = test: Intestinal motility, Upper Gut Transit Test, compound alone; assay type: in vivo; conditions: control 50%
# Description: (§13) To evaluate the activity in vivo of the compounds (I) object of the present invention, functional tests were carried out directed to the evaluation of the effect of said compounds on the rat intestinal motility. It was indeed shown the involvement of the cannabinoidergic CB1 receptors in the intestinal motility regulation in rat (R. G. Pertwee et al; Br. J. Pharmacol.; 1996, 118, 2199-2205). In particular, the CB1 receptor agonists slacken the gastrointestinal motility; antagonist compounds of the same receptors have instead a prokinetic effect on the gastrointestinal transit (G. Colombo et al.; Eur. J. Pharmacol.; 1998, 344, 67-69; M. A. Casu et al.; Eur. J. Pharmacol.; 2003, 459, 97-105).
# (§14) The evaluation of the constipating or prokinetic effect of the compounds was carried out by the Upper Gut Transit Test method on the basis of the procedure defined and ratified by Y. Nagakura et al.; Eur. J. Pharmacol.; 1996, 311, 67-72. The method, which allows to measure the motility of the stomach and of the first intestine tract (small or little intestine), requires: • the administration of the compound to be tested by i.p. route; • the administration of carmine red (marker not directly absorbable from the stomach) by intragastric route through a metal probe, after 20 minutes from the administration of the compound to be tested; • the rat sacrifice by cervical dislocation after a pre-fixed time (30 minutes) starting from the administration time; • the intestine explant from pylorus to the ileo-cecal valve; • the determination of the intestinal part crossed by the marker; • the data processing to determine the percentage of crossed part with respect to the total length of the small intestine.
# With respect to the control (physiological solution or carrier wherein the compounds to be tested were solubilized or dispersed), the administration of CB1 agonist compounds implies an intestinal transit percentage reduction; an opposite effect is noticed in case of antagonist compounds. The latter are therefore capable to cancel the constipating effect of CB1 agonist compounds.
# Each test was repeated on ten animals; the results reported in the Examples are the average of the results obtained with ten animals.
# rat intestinal motility [6] = test: Intestinal motility, Upper Gut Transit Test, antagonism of the constipating action of WIN 55,212-2; assay type: in vivo; conditions: compound 0.1 mg/kg before WIN 55,212-2 0.5 mg/kg, WIN alone 25%
# Description: as §13, §14
# With respect to the control (physiological solution or carrier wherein the compounds to be tested were solubilized or dispersed), the administration of CB1 agonist compounds implies an intestinal transit percentage reduction; an opposite effect is noticed in case of antagonist compounds. The latter are therefore capable to cancel the constipating effect of CB1 agonist compounds. […]
# T2 sequence (P20272 whole entry): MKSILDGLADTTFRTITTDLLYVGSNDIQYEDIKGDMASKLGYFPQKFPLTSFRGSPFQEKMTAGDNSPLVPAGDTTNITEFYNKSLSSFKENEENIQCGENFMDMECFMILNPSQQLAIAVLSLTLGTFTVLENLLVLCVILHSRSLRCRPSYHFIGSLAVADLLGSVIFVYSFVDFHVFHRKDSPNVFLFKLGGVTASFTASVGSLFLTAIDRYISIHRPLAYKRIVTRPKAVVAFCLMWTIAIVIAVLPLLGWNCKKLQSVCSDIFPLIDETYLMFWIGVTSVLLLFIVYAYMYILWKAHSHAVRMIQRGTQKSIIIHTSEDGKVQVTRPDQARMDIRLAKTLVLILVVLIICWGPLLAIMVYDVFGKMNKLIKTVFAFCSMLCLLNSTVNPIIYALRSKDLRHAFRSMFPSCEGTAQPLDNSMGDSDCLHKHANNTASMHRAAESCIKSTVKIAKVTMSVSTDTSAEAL
compound,measurement,setting,value
"O=C(NN1CCCCC1)c1nn(-c2ccc(Cl)cc2Cl)c2c1CCc1sc(Cl)cc1-2 [Example 3.1, N-piperidinyl-7-chloro-1-(2′,4′-dichlorophenyl)-4,5-dihydro-1H-thieno[2,3-g]indazol-3-carboxamide]",Ki,[1],67.4 ± 6 nM
same,Ki,[2],44.3 ± 0.5 nM
"O=C(NN1CCCCC1)c1nn(-c2ccc(Cl)cc2Cl)c2c1CCc1sc(Br)cc1-2 [Example 3.2, N-piperidinyl-7-bromo-1-(2′,4′-dichlorophenyl)-4,5-dihydro-1H-thieno[2,3-g]indazol-3-carboxamide]",Body temperature,"rat [3]; WIN 55,212-2 (3 mg/kg) + compound (0.1-30 mg/kg), 0 min",38.0 °C
same,Body temperature,"rat [3]; WIN 55,212-2 (3 mg/kg) + compound (0.1-30 mg/kg), 15 min",38.0 °C
same,Body temperature,"rat [3]; WIN 55,212-2 (3 mg/kg) + compound (0.1-30 mg/kg), 30 min",34.0 °C
same,Body temperature,"rat [3]; WIN 55,212-2 (3 mg/kg) + compound (0.1-30 mg/kg), 60 min",34.5 °C
same,Body temperature,"rat [3]; WIN 55,212-2 (3 mg/kg) + compound (0.1-30 mg/kg), 90 min",35.8 °C
same,Body temperature,"rat [3]; WIN 55,212-2 (3 mg/kg) + compound (0.1-30 mg/kg), 120 min",36.8 °C
same,"antagonist activity towards the hypothermia induced by WIN 55,212-2, in words",rat [3],"no variation of the body temperature with respect to the treatment with the only WIN 55,212-2"
same,Ki,[1],36.8 ± 5 nM
same,Ki,[2],4.47 ± 0.14 nM
same,Body temperature,"rat [4]; compound alone 0.1-30 mg/kg i.p., 0 min",38.0 °C
same,Body temperature,"rat [4]; compound alone 0.1-30 mg/kg i.p., 15 min",37.9 °C
same,Body temperature,"rat [4]; compound alone 0.1-30 mg/kg i.p., 30 min",38.0 °C
same,Body temperature,"rat [4]; compound alone 0.1-30 mg/kg i.p., 60 min",38.2 °C
same,Body temperature,"rat [4]; compound alone 0.1-30 mg/kg i.p., 90 min",38.1 °C
same,Body temperature,"rat [4]; compound alone 0.1-30 mg/kg i.p., 120 min",37.9 °C
same,passage of the hemato-encephalic barrier,rat [4],not able to pass the hemato-encephalic barrier
same,"effect on body temperature (hypothermia) of the compound alone, in words",rat [4],In none of the examined cases there was a reduction of the body temperature
"O=C(NN1CCCC1)c1nn(-c2ccc(Cl)cc2Cl)c2c1CCc1sc(Br)cc1-2 [Example 3.7, N-pyrrolidinyl-7-bromo-1-(2′,4′-dichlorophenyl)-4,5-dihydro-1H-thieno[2,3-g]indazol-3-carboxamide]",Ki,[1],195 ± 27 nM
same,Ki,[2],126 ± 5 nM
same,melting point,,227 °C
"O=C(NN1CCCCCC1)c1nn(-c2ccc(Cl)cc2Cl)c2c1CCc1sc(Br)cc1-2 [Example 3.8, N-homopiperidinyl-7-bromo-1-(2′,4′-dichlorophenyl)-4,5-dihydro-1H-thieno[2,3-g]indazol-3-carboxamide]",Ki,[1],60 ± 1 nM
same,Ki,[2],9.6 ± 1.7 nM
same,melting point,,176 °C
"Cc1cc2c(s1)CCc1c(C(=O)NN3CCCCC3)nn(-c3ccc(Cl)cc3Cl)c1-2 [Example 3.9, N-piperidinyl-7-methyl-1-(2′,4′-dichlorophenyl)-4,5-dihydro-1H-thieno[2,3-g]indazol-3-carboxamide]",Ki,[1],55.1 ± 6 nM
same,Ki,[2],7.88 ± 0.5 nM
same,melting point,,216 °C
same,passage of the hemato-encephalic barrier,rat [4],unable to pass the hemato-encephalic barrier
"Cc1cc2c(s1)CCc1c(C(=O)NN3CCCCCC3)nn(-c3ccc(Cl)cc3Cl)c1-2 [Example 3.11, N-homopiperidinyl-7-methyl-1-(2′,4′-dichlorophenyl)-4,5-dihydro-1H-thieno[2,3-g]indazol-3-carboxamide]",Ki,[1],57.1 ± 5 nM
same,Ki,[2],57 ± 6 nM
same,melting point,,229 °C
"Cc1c(C(=O)c2cccc3ccccc23)c2cccc3c2n1[C@H](CN1CCOCC1)CO3 [WIN 55,212-2, reference compound]",intestinal portion run by the marker with respect to the total intestine length,"rat intestinal motility [5]; WIN 55,212-2 0.5 mg/kg alone",25%
same,Body temperature,"rat [4]; WIN 55,212-2 3 mg/kg alone, 0 min from administration",37.9 °C
same,Body temperature,"rat [4]; WIN 55,212-2 3 mg/kg alone, 15 min",35.6 °C
same,Body temperature,"rat [4]; WIN 55,212-2 3 mg/kg alone, 30 min",33.8 °C
same,Body temperature,"rat [4]; WIN 55,212-2 3 mg/kg alone, 60 min",34.5 °C
same,Body temperature,"rat [4]; WIN 55,212-2 3 mg/kg alone, 90 min",35.8 °C
same,Body temperature,"rat [4]; WIN 55,212-2 3 mg/kg alone, 120 min",36.8 °C
"N-piperidino-5-(4-chlorophenyl)-1-(2,4-dichlorophenyl)-4-methylpyrazol-3-carboxyamide [SR141716A, reference compound]",Body temperature,"rat [3]; WIN 55,212-2 (3 mg/kg) + compound (0.1 mg/kg), 30 min",35.3 °C
same,Body temperature,"rat [3]; WIN 55,212-2 (3 mg/kg) + compound (0.1 mg/kg), 60 min",36.9 °C
same,Body temperature,"rat [3]; WIN 55,212-2 (3 mg/kg) + compound (0.1 mg/kg), 90 min",37.5 °C
same,Body temperature,"rat [3]; WIN 55,212-2 (3 mg/kg) + compound (0.5 mg/kg), 30 min",37.0 °C
same,Body temperature,"rat [3]; WIN 55,212-2 (3 mg/kg) + compound (0.5 mg/kg), 60 min",37.8 °C
same,Body temperature,"rat [3]; WIN 55,212-2 (3 mg/kg) + compound (0.5 mg/kg), 90 min",37.9 °C
same,"antagonist activity towards the hypothermia induced by WIN 55,212-2, in words",rat [3],"able to antagonize the effect of WIN 55,212-2"
same,intestinal portion run by the marker with respect to the total intestine length,rat intestinal motility [5]; compound 2.5 mg/kg i.p.,75%
same,intestinal portion run by the marker with respect to the total intestine length,rat intestinal motility [6],50%
same,passage of the hemato-encephalic barrier,rat [4],capable to pass the hemato-encephalic barrier
same,"effect on body temperature (hypothermia) of the compound alone, in words",rat [4],has not implied any variation of the body temperature
